The subject of experiment [1] is Sprague-Dawley rats. Briefly: Capsaicin-induced secondary mechanical hypersensitivity. It counts as in vivo, rat. The text has this:
(§1) Adult male Sprague-Dawley rats (250-300 g body weight, Charles River Laboratories, Portage, Mich.) were used. Animal handling and experimental protocols were approved by the Institutional Animal Care and Use Committee (IACUC) at Abbott Laboratories. For all surgical procedures, animals were maintained under isoflurane anesthesia (4-5% to induce, 1-3% to maintain), and the incision sites were sterilized using a 10% povidone-iodine solution prior to and after surgeries.
Rats were allowed to acclimate to the study room for 1 hour. They were then briefly restrained, and capsaicin was administered at 10 μg in 10 μL of vehicle (10% ethanol and 2-hydroxypropyl cyclodextrin) by intraplantar injection into the center of the right hind paw. Secondary mechanical hyperalgesia was measured at the heel away from the site of injection at 180 minutes following the administration of capsaicin (Joshi et al 2006, Neuroscience 143, 587-596). Compounds were administered orally (p.o.) one hour before testing ([…]).
Tactile allodynia was measured using calibrated von Frey filaments (Stoelting, Wood Dale, Ill.) as described in Chaplan, S. R., F. W. Bach, J. M. Pogrel, J. M. Chung and T. L. Yaksh, Quantitative assessment of tactile allodynia in the rat paw, J. Neurosci. Methods, 1994, 53, 55. Rats were placed into inverted individual plastic containers (20×12.5×20 cm) on top of a suspended wire mesh grid, and acclimated to the test chambers for 20 minutes. The von Frey filaments with different bending forces (starting with the lowest first and then progressively increasing) were presented perpendicularly to the plantar surface of the selected hind paw, and then hold in this position for approximately 8 sec with enough force to cause a slight bend in the filament. Positive responses included an abrupt withdrawal of the hind paw from the stimulus, or flinching behavior immediately following removal of the stimulus.

The subject of experiment [2] is Sprague-Dawley rats. Briefly: Rat tail immersion assay (noxious thermosensation). The note with it: rat, 100 μmol/kg oral, one hour post dosing, 55° C. water bath, relative to vehicle. It counts as in vivo. Here is the method: as §1
Compounds were tested for their effects on noxious thermosensation using the tail immersion assay. Testing was performed one hour following oral administration of 100 μmol/kg of the compound in 10% ethanol/20% Tween-80/70% PEG-400 (2 mL/kg). Morphine (6 mg/kg) was administered interperitoneally (i.p.) using saline (2 mL/kg) as the vehicle. For testing, a circulating water bath was heated to 55° C. Thirty to sixty minutes post dosing, the rats were handled for a few seconds to calm them down and then cupped with their back against the tester's hand at a slight angle with head facing away from the tester. With rat in one hand and a 0.01 second stopwatch in the other hand, the tail was quickly immersed 6-8 cm in the water bath or to a distance leaving 2-3 cm of tail out of water. The timer was started simultaneously. When the rat flinched or attempted withdrawal, timer was immediately stopped and the rat's tail was quickly removed from water bath. This response latency (in seconds) was recorded. Process was repeated 3 times with 3-4 minutes between readings and the average response latency was calculated.
For a given example, a percent increase in the average response latency (in seconds) for tail withdrawal relative to a vehicle control was determined. % increase=[(tc−tv)/tv]×100%
tc=response latency (in seconds) with oral dosing of compounds
tv=response latency (in seconds) with oral dosing of vehicle
The % increases in tail withdrawal latency relative to vehicle control are divided into the following categories: […]

The target in experiment [3] is human TRPV1 receptor (hTRPV1) (Homo sapiens (Human), UniProt Q8NER1). The experiment in a line: Capsaicin activation assay (FLIPR intracellular Ca2+). In kind it is cell-based. The note with it: inhibition of capsaicin-induced intracellular Ca2+ increase, read-out: hTRPV1 cap IC50. The method in brief:
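HEK293 cells stably expressing human TRPV1, loaded with Calcium-4 dye 90–120 min at room temperature, preincubated 3 min with compound (12-point one-third-log range) before capsaicin (200 nM as 4× solution). Peak FLIPR fluorescence minus baseline expressed as percent of 50 nM capsaicin control response.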

Where [4] appears, read: Table 1, HEK293 cells expressing human TRPV1.

Data on five compounds can be found in patent publication US8802711B2, “TRPV1 antagonists” (AbbVie Inc., priority 2011, dated 2014).

Where two headings read alike, the source gives them in different places.

What is called IC50 is the concentration that gives 50% inhibition.

human TRPV1 receptor (hTRPV1), sequence (Q8NER1 whole entry): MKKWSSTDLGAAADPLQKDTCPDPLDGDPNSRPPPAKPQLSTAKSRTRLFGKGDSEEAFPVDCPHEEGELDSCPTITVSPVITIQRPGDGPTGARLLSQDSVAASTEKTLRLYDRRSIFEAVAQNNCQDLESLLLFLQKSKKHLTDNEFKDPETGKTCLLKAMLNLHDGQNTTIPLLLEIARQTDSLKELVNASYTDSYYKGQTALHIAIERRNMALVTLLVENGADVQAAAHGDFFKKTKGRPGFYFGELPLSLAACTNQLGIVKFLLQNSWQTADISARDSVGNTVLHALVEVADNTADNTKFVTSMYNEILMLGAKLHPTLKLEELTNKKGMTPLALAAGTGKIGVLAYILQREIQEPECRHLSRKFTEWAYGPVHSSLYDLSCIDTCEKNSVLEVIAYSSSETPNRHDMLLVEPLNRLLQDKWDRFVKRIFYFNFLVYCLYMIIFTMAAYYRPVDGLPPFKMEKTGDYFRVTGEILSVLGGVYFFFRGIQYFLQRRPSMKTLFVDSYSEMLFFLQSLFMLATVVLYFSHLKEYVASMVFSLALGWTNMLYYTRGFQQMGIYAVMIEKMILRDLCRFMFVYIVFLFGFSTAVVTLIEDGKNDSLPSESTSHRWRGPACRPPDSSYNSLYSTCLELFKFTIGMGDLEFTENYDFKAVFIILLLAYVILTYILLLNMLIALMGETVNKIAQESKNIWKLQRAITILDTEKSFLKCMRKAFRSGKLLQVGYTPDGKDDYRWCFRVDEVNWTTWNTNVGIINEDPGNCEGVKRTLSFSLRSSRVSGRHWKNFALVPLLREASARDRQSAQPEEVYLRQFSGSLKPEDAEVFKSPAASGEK

For `O=C(Nc1cccc2[nH]ncc12)N[C@H]1CC[C@@H](c2ccccc2)C1` [Example 28, 1-(1H-indazol-4-yl)-3-[(1S,3R)-3-phenylcyclopentyl]urea], the “% effect” value in experiment [1] (100 μmol/kg p.o.) came to 81%. Further, in experiment [2], the “% Increase in tail withdrawal latency” value was “−”. Further, the IC50 in experiment [3] (setting [4]) and in experiment [3] (Table 2) was 64 nM each time.

Take `O=C(Nc1cccc2[nH]ncc12)N[C@H]1CC[C@H](c2ccccc2)C1` [Example 14, 1-(1H-indazol-4-yl)-3-[(1S,3S)-3-phenylcyclopentyl]urea]: the “% effect” value in experiment [1] (100 μmol/kg p.o.) was determined as 48%. Moreover, the “% Increase in tail withdrawal latency” value in experiment [2] is reported as “−”. The IC50 in experiment [3] (setting [4]) and in experiment [3] (Table 2) was 30 nM each time.

Turning to `Cn1ncc2c(NC(=O)N[C@@H]3CC[C@H](c4ccccc4)C3)cccc21` [Example 4, 1-(1-methyl-1H-indazol-4-yl)-3-[(1R,3S)-3-phenylcyclopentyl]urea], the “% Increase in tail withdrawal latency” value in experiment [2] was “−”. The concentration for half-maximal inhibition (IC50) turned out to be 18 nM in experiment [3] (setting [4]) and 22 nM in experiment [3] (Table 2).

With `Cc1cc2c(NC(=O)N[C@@H]3CC[C@H](c4ccccc4)C3)c(F)ccc2cn1` [Example 6, 1-(6-fluoro-3-methylisoquinolin-5-yl)-3-[(1R,3S)-3-phenylcyclopentyl]urea], the “% effect” value in experiment [1] (10 μmol/kg p.o.) is on record as 59%. For the same compound, the “% Increase in tail withdrawal latency” value in experiment [2] was “−”. Besides, the IC50 in experiment [3] (setting [4]) and in experiment [3] (Table 2) was 4 nM throughout.

Regarding `O=C(Nc1cccc2[nH]ncc12)N[C@@H]1CC[C@@H](c2ccccc2)C1` [Example 21, 1-(1H-indazol-4-yl)-3-[(1R,3R)-3-phenylcyclopentyl]urea], in experiment [2] (1 h, read-out: % Increase in tail withdrawal latency), the change in vivo at 100 µmol/kg was 10 to 25%. In addition, the concentration for half-maximal inhibition (IC50) in experiment [3] (setting [4]) and in experiment [3] (Table 2) was 20 nM each time.
